Test: Thermo Scientific Acclaim RSLC 120 C18, 100 × 2.1 mm, 2.2 µm, 30 °C; A: 90% water + 10% methanol + 0.01% formic acid + 5 mM ammonium formate; B: methanol + 0.01% formic acid + 5 mM ammonium formate; gradient (min/%B) 0.1/1 3/39 14/99.9 16/99.9
Conditions: stereoisomer not certain

SMILES	LC retention time
CNCC(O)c1ccc(O)cc1 (stereo unspecified)	1.6 min
c1ccc2c(c1)Sc1ccccc1N2CC1CN2CCC1CC2 (stereo unspecified)	8.29 min
CCOc1ccccc1C(N)=O	5.68 min
CC(C)CCOc1ccc(NC(=S)Nc2ccc(OCCC(C)C)cc2)cc1	13 min
CNCCC(Oc1ccccc1C)c1ccccc1 (stereo unspecified)	7.63 min
CN(CCO)CC(O)Cn1cnc2c1c(=O)n(C)c(=O)n2C (stereo unspecified)	2.99 min
COc1ccc(Oc2ccc(NC(=O)N(C)C)cc2)cc1	8.43 min
Cc1cc(C(C)(C)C)c(O)c(C)c1CC1=NCCN1	6.99 min
COC(=O)C(Cc1ccccc1)NC(=O)C(CC(=O)O)NCCC(C)(C)C (stereo unspecified)	8.83 min
CN(C(=O)CN(CCO)CC(=O)N(C)C(C)(C)Cc1ccccc1)C(C)(C)Cc1ccccc1	10.9 min
CN(C)C(=O)Nc1ccccc1	5.12 min
COc1ccc2c3c1OC1C(=O)CCC4C(C2)N(C)CCC314 (stereo unspecified)	3.69 min
CC(CS)C(=O)N1CCCC1C(=O)O (stereo unspecified)	4.59 min
Cc1ncc(CSSCc2cnc(C)c(O)c2CO)c(CO)c1O	5.54 min
Cc1ccc(C(=O)C(C)N2CCCC2)cc1 (stereo unspecified)	4.76 min
O=C(O)c1ccc2n[nH]nc2c1	3.81 min
CCCCCCCC(C)(C)c1ccc(C2CCCC(O)C2)c(O)c1 (stereo unspecified)	13.5 min
CCN(CC)CCNC(=O)COc1ccc(OC)cc1	4.31 min
CC1=NNC(=O)N(N=Cc2cccnc2)C1	4.01 min
CCCC(Cc1ccccc1)N1CCCC1 (stereo unspecified)	5.56 min
COc1cc(C(=O)NCc2ccc(OCCN(C)C)cc2)cc(OC)c1OC	4.86 min
CCN(CC)C(=O)C1C=C2c3cccc4c3C(O)(CC2N(C)C1)C(=O)N4 (stereo unspecified)	4.23 min
CC(C)c1ccc(NC(=O)N(C)C)cc1	8.32 min
CC12CCC(=O)C=C1CCC1C2CCC2(C)C(OC(=O)c3ccccc3)CCC12 (stereo unspecified)	13.8 min

SMILES	LC retention time
CCOP(=S)(OCC)Oc1ccc(S(C)=O)cc1 (stereo unspecified)	8.27 min
COCCOc1c(OC)cc(Cc2cnc(N)nc2N)cc1OC	4.24 min
CC(CN1c2ccccc2Sc2ccccc21)N(C)C (stereo unspecified)	7.53 min
CCCCN(CCCC)CCCC	5.28 min
O=C1N(CCN2CCCCC2)C(=O)C(c2ccccc2)(N2CCCCC2)C(=O)N1CCN1CCCCC1	7.64 min
CNC(=O)C(=NOC)c1ccccc1COc1cc(C)ccc1C	10.7 min
CC=C1CC(C)C(C)(O)C(=O)OCC2=CCN3CCC(OC1=O)C23 (stereo unspecified)	4.62 min
CC(=O)Nc1ccc(S(=O)(=O)Nc2nc(C)cc(C)n2)cc1	4.59 min
CN1CCN(CCCN2c3ccccc3Sc3ccccc32)CC1	8.8 min
COc1ccc2c3c1OC1C(=O)CCC4(O)C(C2)N(C)CCC314 (stereo unspecified)	3.61 min
CC(CN(C)C)CN1c2ccccc2S(=O)(=O)c2ccccc21 (stereo unspecified)	5.34 min
COc1ccc2c3c1OC1C(O)CCC4C(C2)N(C)CCC341 (stereo unspecified)	3.36 min
CC(N)Cc1ccc(O)cc1 (stereo unspecified)	2.98 min
CCSC(=O)N1CCCCCC1	9.89 min
CN(C)C(=O)Oc1cc(OC(=O)N(C)C)cc(C(O)CNC(C)(C)C)c1 (stereo unspecified)	5.16 min
CCCCn1c(O)c(C(=O)c2cccc3ccccc23)c2ccccc21	13.5 min
COc1ccccc1OCC(O)COC(N)=O (stereo unspecified)	5.21 min
COc1ccc(C(CN(C)C)C2(O)CCCCC2)cc1 (stereo unspecified)	6.14 min
CCCCCc1cc(O)c2c(c1)OC(C)(C)C1CCC(C(=O)O)=CC21 (stereo unspecified)	12.5 min
Cc1ncc([N+](=O)[O-])n1CCO	3.58 min
CCCCCCCCc1ccc(OCCO)cc1	12.4 min
CCCC(=O)Nc1ccc(OCC(O)CNC(C)C)c(C(C)=O)c1 (stereo unspecified)	4.78 min
NC(=O)N1c2ccccc2C2OC2c2ccccc21 (stereo unspecified)	6.04 min
CC1(C)C(C(=O)c2cn(CCN3CCOCC3)c3ccccc23)C1(C)C	10.7 min

SMILES	LC retention time
CCS(=O)(=O)Cc1ccccc1OC(=O)NC	4.63 min
CN1CCN(CC(=O)N2c3ccccc3C(=O)Nc3cccnc32)CC1	4.11 min
COC(=O)c1ccccc1S(=O)(=O)NC(=O)N(C)c1nc(C)nc(OC)n1	7.94 min
CN1C2CCC1CC(OC(=O)C(CO)c1ccccc1)C2 (stereo unspecified)	4.36 min
CNC(=O)ON=C(CSC)C(C)(C)C	7.8 min
COc1ccc(CC(C)N)cc1OC (stereo unspecified)	3.94 min
OCC(O)CN1CCN(c2ccccc2)CC1 (stereo unspecified)	3.79 min
CC=C1CC(C)C(O)(CO)C(=O)OCC2=CC[N+]3([O-])CCC(OC1=O)C23 (stereo unspecified)	4.33 min
Cc1ccc(N)c(C)c1	5.04 min
CCc1cc2c(s1)-n1c(C)nnc1CN=C2c1ccccc1	8.43 min
CN(C)CCCN1c2ccccc2Sc2ccccc21	7.69 min
CC(C)C(N)C(=O)OCC(CO)OCn1cnc2c(=O)[nH]c(N)nc21 (stereo unspecified)	2.71 min
Nc1ccc(S(=O)(=O)NC(=O)c2ccccc2)cc1	4.72 min
CCOC(=O)NCCOc1ccc(Oc2ccccc2)cc1	10.6 min
CC12CCC3C4CCC(=O)C=C4CCC3C1CCC2O (stereo unspecified)	9.37 min
CCNC(=O)C(C)OC(=O)Nc1ccccc1 (stereo unspecified)	6.58 min
CCC(c1cccc(O)c1)C(C)CN(C)C (stereo unspecified)	5.01 min
COc1cc2c(cc1OC)C(=O)C(CC1CCN(Cc3ccccc3)CC1)C2 (stereo unspecified)	5.81 min
c1ccc2n[nH]nc2c1	4.76 min
CCCCCn1cc(C(=O)Cc2ccccc2C)c2ccccc21	12.2 min
CNCC(O)c1cccc(O)c1 (stereo unspecified)	1.93 min
CCCCCCCCCCCC(CC1OC(=O)C1CCCCCC)OC(=O)C(CC(C)C)NC=O (stereo unspecified)	14.6 min
CC(C)CN(CC(O)C(Cc1ccccc1)NC(=O)OC1COC2OCCC12)S(=O)(=O)c1ccc(N)cc1 (stereo unspecified)	8.21 min
O=C(Oc1ccccc1)c1ccccc1C(=O)Oc1ccccc1	11.2 min

SMILES	LC retention time
CC(C)OP(=O)(OC(C)C)SCc1ccccc1	10.6 min
CC(C)NCC(O)COc1cccc2[nH]ccc12 (stereo unspecified)	3.89 min
CCCCCCCCCCCCOCCOCCOCCOCCO	13.5 min
CCCN1CC(CSC)CC2c3cccc4[nH]cc(c34)CC21 (stereo unspecified)	6.19 min
COCC(=O)N(c1c(C)cccc1C)N1CCOC1=O	6.29 min
CN(C)S(=O)(=O)c1ccc2c(c1)N(CCCN1CCC(CCO)CC1)c1ccccc1S2	7.39 min
CC(=O)Nc1ccc(O)cc1	3.48 min
CCSCc1ccccc1OC(=O)NC	7.7 min
CN1CCCCC(n2cc(C(=O)c3cccc4ccccc34)c3ccccc32)C1 (stereo unspecified)	8.61 min
CCCCC1(COC(=O)CCC(=O)O)C(=O)N(c2ccccc2)N(c2ccccc2)C1=O	9.61 min
Cn1c(=O)c2c(ncn2C)n(C)c1=O	4.23 min
CC(=O)OC1C=CC2C3Cc4ccc(O)c5c4C2(CCN3C)C1O5 (stereo unspecified)	3.75 min
CCCCCn1cc(C(=O)C23CC4CC(CC(C4)C2)C3)c2ccccc21	13.7 min
COc1ccc(CN(CCN(C)C)c2ccccn2)cc1	5.89 min
CC(C)NCC(O)COc1cccc2[nH]c3ccccc3c12 (stereo unspecified)	5.49 min
CCCN(CCC)c1c([N+](=O)[O-])cc(C(C)C)cc1[N+](=O)[O-]	13.2 min
O=c1[nH]c2ccccc2s1	6.53 min
CC#CC1(O)CCC2C3CCC4=CC(=O)CCC4=C3C(c3ccc(N(C)C)cc3)CC21C (stereo unspecified)	11.1 min
COc1ccc(C(=O)c2c(C)n(CCN3CCOCC3)c3ccccc23)cc1	9.55 min
CON=C(C(=O)NC1C(=O)N2C(C(=O)[O-])=C(C[n+]3cccc4c3CCCC4)CSC12)c1csc(N)n1 (stereo unspecified)	3.76 min
CN(C)CCN1C(=O)c2ccccc2N(C)c2ccccc21	5.49 min
CN(C)CCc1c[nH]c2ccccc12	3.94 min
c1ccc2c(c1)CCCC2C1=NCCN1 (stereo unspecified)	4.47 min
c1ccc2[nH]c(-c3cscn3)nc2c1	6.15 min

SMILES	LC retention time
CC(Cc1ccccc1)N1C=C(NC(=O)N=C2C=CC(=O)C=C2)ON1 (stereo unspecified)	7.24 min
CC(N)Cc1c[nH]c2ccccc12 (stereo unspecified)	4.44 min
C#CC1(OC(C)=O)CCC2C3CCC4=CC(=O)CCC4C3CCC21C (stereo unspecified)	10.8 min
CCOP(=S)(NC(C)C)Oc1ccccc1C(=O)OC(C)C (stereo unspecified)	11.2 min
CCC(c1cccc(O)c1)C(C)CNC (stereo unspecified)	5.14 min
COc1ccc2c3c([nH]c2c1)C(C)=NCC3	5.06 min
Cc1c(N)c(=O)n(-c2ccccc2)n1C	4.69 min
COC=C(C(=O)O)c1ccccc1Oc1cc(Oc2ccccc2C#N)ncn1	8.18 min
CNCC(O)c1ccc(O)c(O)c1 (stereo unspecified)	1.38 min
CCN(CC)C(=O)N1CCN(C)CC1	3.16 min
CCOP(=O)(OCC)OP(=O)(OCC)OCC	6.49 min
CCCCNC(=O)NS(=O)(=O)c1ccc(C)cc1	7.68 min
COc1ccc2c(c1O)-c1c3c(cc4c1C(C2)N(C)CC4)OCO3 (stereo unspecified)	4.36 min
CN(C)c1ccccc1	6.26 min
CCN1CC2(COC)C(O)CC(OC)C34C5CC6(O)C(OC)C(O)C(OC(C)=O)(C5C6OC(=O)c5ccccc5)C(C(OC)C23)C14 (stereo unspecified)	7.09 min
CC(=O)c1ccc2c(c1)N(CC(C)N(C)C)c1ccccc1S2 (stereo unspecified)	7.26 min
Cc1c(C(C)C)c(=O)n(-c2ccccc2)n1C	7.23 min
COc1ccc2c3c1OC1CC(O)C=CC31CCN(C)C2 (stereo unspecified)	2.99 min
CN(C)CCc1c[nH]c2ccc(Cn3cncn3)cc12	3.49 min
COCCCNc1nc(NC(C)C)nc(SC)n1	9.14 min
